Source: article PMC8213057, “Targeting ALK2: An Open Science Approach to Developing Therapeutics for the Treatment of Diffuse Intrinsic Pontine Glioma” (Journal of Medicinal Chemistry, 2020)

Tests used:
MYO3b = molecular target: T1, MYO3b (Homo sapiens, UniProt Q8WXR4); conditions: 1 μM; Run 1, Run 2
T1 sequence (Q8WXR4 1-1341): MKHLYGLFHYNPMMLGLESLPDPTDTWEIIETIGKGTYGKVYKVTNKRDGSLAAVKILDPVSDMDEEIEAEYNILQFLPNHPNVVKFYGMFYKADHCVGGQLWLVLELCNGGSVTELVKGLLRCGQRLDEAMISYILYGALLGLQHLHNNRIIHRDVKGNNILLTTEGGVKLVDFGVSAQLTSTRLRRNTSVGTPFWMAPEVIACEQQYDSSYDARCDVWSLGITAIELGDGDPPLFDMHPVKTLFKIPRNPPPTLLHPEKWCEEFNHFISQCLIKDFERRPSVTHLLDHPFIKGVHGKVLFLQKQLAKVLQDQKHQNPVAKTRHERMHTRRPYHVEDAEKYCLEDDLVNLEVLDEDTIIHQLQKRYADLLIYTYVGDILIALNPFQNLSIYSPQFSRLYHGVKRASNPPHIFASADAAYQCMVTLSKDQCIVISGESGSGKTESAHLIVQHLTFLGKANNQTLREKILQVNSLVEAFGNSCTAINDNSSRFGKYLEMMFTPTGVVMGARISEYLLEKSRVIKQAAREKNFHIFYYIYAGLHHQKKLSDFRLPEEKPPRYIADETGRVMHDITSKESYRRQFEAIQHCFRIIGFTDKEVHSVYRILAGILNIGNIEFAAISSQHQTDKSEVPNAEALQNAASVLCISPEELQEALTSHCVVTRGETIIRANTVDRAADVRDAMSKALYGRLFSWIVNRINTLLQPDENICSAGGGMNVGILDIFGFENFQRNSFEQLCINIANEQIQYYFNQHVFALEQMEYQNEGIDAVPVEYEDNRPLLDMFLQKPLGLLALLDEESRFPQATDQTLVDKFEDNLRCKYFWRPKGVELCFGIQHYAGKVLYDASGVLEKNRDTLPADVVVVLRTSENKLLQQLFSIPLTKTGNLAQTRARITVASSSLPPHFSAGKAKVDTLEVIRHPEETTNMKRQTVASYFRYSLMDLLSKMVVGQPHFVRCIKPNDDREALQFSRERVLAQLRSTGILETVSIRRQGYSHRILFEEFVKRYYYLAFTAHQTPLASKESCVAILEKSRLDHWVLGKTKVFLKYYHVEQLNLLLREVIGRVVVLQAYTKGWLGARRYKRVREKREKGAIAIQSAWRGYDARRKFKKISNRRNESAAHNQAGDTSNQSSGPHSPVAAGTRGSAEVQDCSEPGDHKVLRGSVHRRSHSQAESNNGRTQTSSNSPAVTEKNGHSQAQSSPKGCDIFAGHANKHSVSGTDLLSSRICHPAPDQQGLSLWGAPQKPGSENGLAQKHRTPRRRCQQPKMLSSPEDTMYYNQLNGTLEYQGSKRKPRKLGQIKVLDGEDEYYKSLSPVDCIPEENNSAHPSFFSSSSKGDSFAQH

RSK1 = RSK1 (Homo sapiens, UniProt Q15418); experiment: biochemical; conditions: read-out: % enzyme activity, 1 μM; Run 1, Run 2
Chain of RSK1 (Q15418 whole entry): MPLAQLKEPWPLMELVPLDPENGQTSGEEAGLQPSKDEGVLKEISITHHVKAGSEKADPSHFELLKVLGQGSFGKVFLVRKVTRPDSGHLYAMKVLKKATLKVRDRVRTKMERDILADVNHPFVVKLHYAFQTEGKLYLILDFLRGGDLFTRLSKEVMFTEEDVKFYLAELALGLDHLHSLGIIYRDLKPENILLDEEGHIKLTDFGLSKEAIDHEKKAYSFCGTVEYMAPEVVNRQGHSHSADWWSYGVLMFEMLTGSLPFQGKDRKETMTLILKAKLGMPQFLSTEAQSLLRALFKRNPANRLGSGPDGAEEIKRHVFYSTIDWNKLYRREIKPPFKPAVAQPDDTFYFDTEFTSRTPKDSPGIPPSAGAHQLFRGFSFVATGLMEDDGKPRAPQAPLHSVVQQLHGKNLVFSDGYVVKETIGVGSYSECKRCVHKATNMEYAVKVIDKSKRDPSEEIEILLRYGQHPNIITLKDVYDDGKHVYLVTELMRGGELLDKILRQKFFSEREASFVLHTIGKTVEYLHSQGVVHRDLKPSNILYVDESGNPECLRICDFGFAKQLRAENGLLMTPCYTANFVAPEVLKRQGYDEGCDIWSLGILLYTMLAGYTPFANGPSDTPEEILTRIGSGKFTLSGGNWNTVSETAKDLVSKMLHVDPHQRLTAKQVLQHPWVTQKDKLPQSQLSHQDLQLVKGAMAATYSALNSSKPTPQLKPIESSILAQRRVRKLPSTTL

TAOK2/TAO1 = molecular target: T2, TAOK2/TAO1 (Homo sapiens, UniProt Q9UL54); experiment: biochemical; conditions: read-out: % enzyme activity, 1 μM; Run 1, Run 2
T2 sequence (Q9UL54 1-1235): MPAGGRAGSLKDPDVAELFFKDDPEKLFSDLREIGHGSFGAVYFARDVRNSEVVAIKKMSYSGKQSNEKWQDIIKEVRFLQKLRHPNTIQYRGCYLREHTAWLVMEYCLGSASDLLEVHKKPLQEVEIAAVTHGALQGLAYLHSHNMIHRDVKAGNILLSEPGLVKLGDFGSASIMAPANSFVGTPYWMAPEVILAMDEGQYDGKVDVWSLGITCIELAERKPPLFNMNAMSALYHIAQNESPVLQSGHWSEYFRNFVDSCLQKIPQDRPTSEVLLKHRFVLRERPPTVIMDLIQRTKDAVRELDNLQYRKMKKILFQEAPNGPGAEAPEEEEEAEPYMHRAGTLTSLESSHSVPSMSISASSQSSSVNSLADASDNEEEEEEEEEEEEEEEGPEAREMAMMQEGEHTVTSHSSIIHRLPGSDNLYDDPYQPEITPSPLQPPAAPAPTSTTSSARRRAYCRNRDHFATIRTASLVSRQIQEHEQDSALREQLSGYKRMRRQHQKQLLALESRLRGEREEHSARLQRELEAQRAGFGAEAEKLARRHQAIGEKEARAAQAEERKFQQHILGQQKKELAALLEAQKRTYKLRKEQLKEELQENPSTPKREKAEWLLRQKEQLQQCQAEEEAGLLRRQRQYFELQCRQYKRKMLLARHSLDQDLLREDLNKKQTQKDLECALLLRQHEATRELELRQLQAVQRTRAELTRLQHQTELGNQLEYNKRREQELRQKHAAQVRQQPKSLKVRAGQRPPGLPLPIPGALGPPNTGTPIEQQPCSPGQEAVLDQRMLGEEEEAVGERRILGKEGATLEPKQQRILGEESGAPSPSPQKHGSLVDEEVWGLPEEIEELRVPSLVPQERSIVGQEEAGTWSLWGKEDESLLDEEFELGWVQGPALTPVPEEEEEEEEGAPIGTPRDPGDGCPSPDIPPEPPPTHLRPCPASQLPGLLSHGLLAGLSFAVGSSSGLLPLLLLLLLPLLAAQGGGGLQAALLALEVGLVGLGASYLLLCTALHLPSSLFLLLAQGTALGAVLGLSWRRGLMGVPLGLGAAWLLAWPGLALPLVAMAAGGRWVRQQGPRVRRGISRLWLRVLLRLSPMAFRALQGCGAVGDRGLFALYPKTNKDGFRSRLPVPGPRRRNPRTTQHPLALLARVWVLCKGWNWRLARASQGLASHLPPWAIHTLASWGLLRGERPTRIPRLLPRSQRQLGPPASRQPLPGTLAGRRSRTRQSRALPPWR

## COc1cc(-c2cncc(-c3ccc(N4CCN(C)CC4)cc3)c2C)cc(F)c1C(N)=O [Compound 26a, 2-Fluoro-6-methoxy-4-(4-methyl-5-(4-(4-methylpiperazin-1-yl)phenyl)pyridin-3-yl)benzamide]
MYO3b
  % enzyme activity: 81.31%
RSK1
  remaining activity at 1 µM: 98.9%
TAOK2/TAO1
  remaining activity at 1 µM: 88.6%

## COc1cc(-c2cncc(-c3ccc(N4C[C@@H](C)N(C)[C@@H](C)C4)cc3)c2C)cc(F)c1C(N)=O [Compound 26c, 2-Fluoro-6-methoxy-4-(4-methyl-5-(4-((3R,5S)-3,4,5-trimethylpiperazin-1-yl)phenyl)pyridin-3-yl)benzamide]
MYO3b
  % enzyme activity: 85.13%
RSK1
  remaining activity at 1 µM: 102%
TAOK2/TAO1
  remaining activity at 1 µM: 101%
